Like-named read-outs stand apart in the source and are kept apart here. Where a SMILES comes first, the peptide text is derived from it. Side-chain parts run from the residue outwards. [ ]: non-standard residue; d: D form. The star is where a group is joined. DOTA = O=C(O)CN1CCN(CC(=O)O)CCN(CC(=O)*)CCN(CC(=O)O)CC1; 2Nal = N[C@@H](Cc1ccc2ccccc2c1)C(=O)O; dNMeOrn = CN[C@H](CCCN)C(=O)O; 4Amb = NCc1ccc(C(=O)O)cc1
Legend:
[1] = Small animal PET imaging in Daudi xenograft bearing mice; format: in vivo; settings: CB17 SCID, mouse, iv, total radioactivity, 90 min p.i., dynamic PET, ROI analysis, n=1 per compound
Procedure: (§1) Small aminal PET imaging studies were performed using a Siemens Inveon PET scanner. Animals were anesthetized with isoflurane and injected via the tail vein with 10 to 15 MBq (0.1 nmol) of the respective tracer. Dynamic imaging (n=1 per compound) was performed after on-bed injection for 1.5 h, and static images (n=1 per compound) were acquired at 1 h p.i. with an acquisition time of 15 min. Data analysis was performed using the Inveon Research Workplace software. Images were reconstructed using a 3D ordered-subsets expectation maximum (OSEM3D) algorithm without scanner and attenuation correction. Time-activity curves (Figure 4) were obtained by generating isocontour regions of interest (ROI) for the tumor and the heart content (as a surrogate for blood activity), as well as by defining two spherical ROIs (each 23.4 mm^3) in the thigh area (muscle) and areas of homogenous tracer uptake in the liver, followed by plotting of average activity ± SD per volume in these ROIs over time.  Figure 4 Results from small animal PET imaging using [^68Ga]PentixaFor (top row), [^68Ga]DOTA-r-a-ABA-CPCR4 (middle row) and [^68Ga]DOTA-r-a-ABA-iodoCPCR4 (bottom row) in Daudi xenograft bearing CB17 SCID mice. Images on the left (MIP) were obtained by static imaging (1h p.i., n=1), the time activity curves (TAC) on the right were acquired by dynamic PET imaging (0-90 min p.i., n=1).

[2] = tested on: Daudi xenograft bearing CB17 SCID mice; assay: as above; format: in vivo; settings: mouse, in vivo
Procedure: as §1

murine CXCR4 (mCXCR4) = biological target: T1, murine CXCR4 (mCXCR4) (Mus musculus, UniProt P70658); assay: Competition binding to mCXCR4, Eµ-myc 1080 mouse lymphoma cells, [125I]CPCR4.3 as radioligand; settings: Eµ-myc 1080 mouse lymphoma cells 200.000 cells/sample, means ± SD of min. three separate experiments
T1 construct: mCXCR4-expressing Eµ-Myc1080 mouse B-cell lymphoma cells; endogenous in cells; host or cells: Eµ-Myc1080 mouse B-cell lymphoma cells (whole cells)
Procedure: Experiments were performed in triplicate with n=3 per concentration in each experiment. IC50 values were calculated using GraphPad Prism 6.01 (Graph Pad Software, San Diego, USA).

T1 sequence (P70658 whole entry): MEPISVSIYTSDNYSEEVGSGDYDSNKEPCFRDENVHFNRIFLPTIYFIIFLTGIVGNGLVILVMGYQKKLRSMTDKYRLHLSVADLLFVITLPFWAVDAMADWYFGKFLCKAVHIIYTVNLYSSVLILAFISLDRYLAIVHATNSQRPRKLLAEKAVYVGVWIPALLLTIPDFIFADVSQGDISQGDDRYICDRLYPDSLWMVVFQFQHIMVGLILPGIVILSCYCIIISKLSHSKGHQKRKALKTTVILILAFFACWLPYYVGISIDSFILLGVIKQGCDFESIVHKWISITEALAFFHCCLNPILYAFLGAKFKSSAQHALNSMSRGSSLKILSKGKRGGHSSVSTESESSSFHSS

| tissue uptake per volume at 1.5 h ([1]; kidney, read-out: Kidney uptake in PET) [%ID/mL] | tissue uptake per volume at 1.5 h ([1]; liver, average ± SD per volume in ROI, read-out: Liver uptake in PET) [%ID/mL] | tissue uptake per volume at 1.5 h ([1]; tumor (Daudi xenograft), Daudi xenograft, read-out: Tumor accumulation in PET) [%ID/mL] | Time at which tumor uptake plateaus (TAC) [2] [min p.i.] | IC50 (murine CXCR4 (mCXCR4)) [nM] | Compound |
| --- | --- | --- | --- | --- | --- |
| 2.7 ± 0.1 | 1.8 ± 0.1 | 14.3 ± 1.2 | ~20 | – | CN1C(=O)[C@@H](Cc2ccc(O)cc2)NC(=O)CNC(=O)[C@H](Cc2ccc3ccccc3c2)NC(=O)[C@H](CCCNC(=N)N)NC(=O)[C@H]1CCCNC(=O)c1ccc(CNC(=O)CN2CCN(CC(=O)O)CCN(CC(=O)O)CCN(CC(=O)O)CC2)cc1 [[^68Ga]PentixaFor, cyclo(D-Tyr^1-D-[NMe]Orn^2(AMBS-[^68Ga]DOTA)-Arg^3-Nal^4-Gly^5), metal not drawn, reference compound] (cyclo([dY][dNMeOrn]([4Amb-DOTA])R[2Nal]G)) |
| – | – | – | – | 61 ± 17 | [^natLu]DOTA-k-G-ABA-iodoCPCR4 (head to tail) [natLu-complex of entry 10] |
| – | – | – | – | 37 ± 3 | [^natLu]DOTA-r-G-ABA-iodoCPCR4 (head to tail) [natLu-complex of entry 12] |

From publication PMC7381729, “A new class of PentixaFor- and PentixaTher-based theranostic agents with enhanced CXCR4-targeting efficiency” (Theranostics, 2020)
